Measurements as given in PubChem BioAssay (NCI).
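Compound exposure: 48 hours, 5 concentrations, 96-well plates. Definition used: TGI = concentration required for complete inhibition of growth.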

How the values were obtained:
Experiment in all cases: NCI tumour cell line growth inhibition, 48 h
786-0 renal = test system: 786-0 renal
A498 renal = test system: A498 renal
CAKI-1 renal = test system: CAKI-1 renal
COLO 205 colon = test system: COLO 205 colon
HCT-15 colon = test system: HCT-15 colon
HL-60(TB) leukemia = test system: HL-60(TB) leukemia
HOP-62 NSCLC = test system: HOP-62 NSCLC
HS 578T breast = test system: HS 578T breast
LOX IMVI melanoma = test system: LOX IMVI melanoma
MOLT-4 leukemia = test system: MOLT-4 leukemia
NCI-H226 lung = test system: NCI-H226 lung
NCI-H522 lung = test system: NCI-H522 lung
OVCAR-3 ovarian = test system: OVCAR-3 ovarian
SF-295 CNS = test system: SF-295 CNS
SK-MEL-2 melanoma = test system: SK-MEL-2 melanoma
SK-MEL-5 melanoma = test system: SK-MEL-5 melanoma
UACC-257 melanoma = test system: UACC-257 melanoma
UACC-62 melanoma = test system: UACC-62 melanoma
UO-31 renal = test system: UO-31 renal

Row | Structure (SMILES) | TGI (786-0 renal) [µM] | TGI (A498 renal) [µM] | TGI (CAKI-1 renal) [µM] | TGI (COLO 205 colon) [µM] | TGI (HCT-15 colon) [µM] | TGI (HL-60(TB) leukemia) [µM] | TGI (HOP-62 NSCLC) [µM] | TGI (HS 578T breast) [µM] | TGI (LOX IMVI melanoma) [µM] | TGI (MOLT-4 leukemia) [µM] | TGI (NCI-H226 lung) [µM] | TGI (NCI-H522 lung) [µM] | TGI (OVCAR-3 ovarian) [µM] | TGI (SF-295 CNS) [µM] | TGI (SK-MEL-2 melanoma) [µM] | TGI (SK-MEL-5 melanoma) [µM] | TGI (UACC-257 melanoma) [µM] | TGI (UACC-62 melanoma) [µM] | TGI (UO-31 renal) [µM]
1 | Cc1cc(S(=O)(=O)Nc2nnc3c(Cl)cc(C(F)(F)F)cn23)c(S)cc1Cl | > 100 | > 100 | > 100 | > 100 | > 100 | > 100 | > 100 | > 100 | > 100 | > 100 | > 100 | > 100 | > 100 | > 100 | > 100 | > 80.6 | > 100 | > 100 | > 100
2 | CCOC(=O)CN1C(=O)c2c(NC(=O)C(=O)O)cccc2S1(=O)=O | > 100 | > 100 | > 100 | > 100 | > 100 | > 100 | > 100 | > 100 | > 100 | > 100 | > 100 | > 100 | – | > 100 | > 100 | > 100 | > 100 | > 100 | > 100
3 | COC(=O)CCc1cc(OC)c2oc(-c3ccc(OC)c(OC)c3)c(CO)c2c1 | > 100 | > 100 | > 100 | > 100 | > 100 | > 100 | > 100 | > 100 | > 100 | > 100 | > 100 | > 100 | > 100 | > 100 | > 100 | > 100 | > 100 | > 100 | > 100
4 | CCOC(=O)c1c(Br)c(-c2ccc([N+](=O)[O-])cc2)c(Br)n1C | > 10 | > 10 | > 10 | > 10 | > 10 | > 10 | > 10 | > 10 | > 10 | > 10 | > 10 | > 10 | > 10 | > 10 | > 10 | > 10 | > 10 | > 10 | > 10
5 | C[N+]1(C)C/C(=C\C=C\c2ccccc2)C(=O)/C(=C/C=C/c2ccccc2)C1 | 55.3 | > 94.9 | > 82.3 | 11.8 | > 100 | 4.13 | 46.3 | > 61.4 | 52.1 | 16.6 | > 72.1 | 21.5 | 42.6 | 81.7 | 64.2 | 25.2 | 26 | 14.2 | > 100
6 | C/C1=C\CC[C@@]2(C)O[C@@H]2C[C@@H]2[C@H](C/C(C)=C/CC1)OC(=O)[C@]21CO1 | > 100 | > 100 | > 100 | > 100 | > 100 | > 100 | > 100 | > 100 | 44.6 | > 100 | > 100 | > 100 | > 100 | > 100 | > 100 | > 100 | > 100 | > 100 | > 100
7 | O=C(Nc1ccccc1)c1cc2cc(CCl)ccc2oc1=O | > 100 | 26.1 | > 100 | > 100 | > 100 | > 100 | > 100 | 63.9 | > 100 | > 100 | > 100 | > 100 | > 100 | > 100 | > 100 | > 100 | > 100 | 32.8 | > 100
8 | CCOC(=O)C12CCC(c3c(C)cccc3C)(O1)C(C(=O)OC)=C2C(=O)OC (configuration not stated) | > 10 | 7 | > 10 | 5.08 | > 10 | > 7.4 | > 10 | > 9.49 | > 7.87 | > 10 | > 10 | > 10 | 4.2 | > 10 | > 10 | 5.37 | 8.15 | > 10 | > 10
9 | Cc1ccc(C(CCO)CCO)nc1 | > 100 | > 100 | > 100 | > 100 | > 100 | > 100 | > 100 | > 100 | > 100 | > 100 | > 100 | > 100 | > 100 | > 100 | > 100 | > 100 | > 100 | > 100 | > 100
10 | CC(=O)OC1CC2C(=O)CC1(C)C2(C)C (configuration not stated) | > 100 | > 100 | > 100 | > 100 | > 100 | > 100 | > 100 | > 100 | > 100 | > 100 | > 100 | > 100 | > 100 | > 100 | > 100 | > 100 | > 100 | > 100 | > 100
11 | O=C(NCCCN1CCN(CCCNC(=O)c2cc(-c3ccccc3)nc3ccccc23)CC1)c1cc(-c2ccccc2)nc2ccccc12 | 21.5 | 73.6 | 20.8 | > 71.3 | > 100 | > 51.8 | 41.3 | 37.1 | 10.6 | > 66.1 | > 65.3 | 32 | > 53.6 | 31.6 | 36.9 | 3.98 | 5.45 | 37.5 | > 42.2
12 | Cc1nnc(N)nc1C/C=C/C(C)Sc1ccc(Cl)cc1 (configuration not stated) | 33.1 | 25.9 | 33.9 | 49.8 | > 54.1 | 10.1 | 25.4 | > 75.9 | > 30.4 | > 100 | 7.69 | 16.1 | – | 11.8 | 30.6 | 22.9 | 30.8 | 17.8 | 19.4
13 | COc1cccc(C2c3cc4c(cc3OC(NNC(N)=O)C2C)OCO4)c1OC (configuration not stated) | 16.5 | 51.1 | 83.4 | 27.8 | 77.7 | 57.4 | 57.5 | 45.9 | 45.6 | 66.8 | 76.1 | 61.5 | 50.2 | 43.3 | 52.1 | 43.9 | 92.1 | 53 | 86
14 | O=C(N/N=C\c1ccc(Cl)cc1)Nc1cccc2ccccc12 | 3.9 | 7.13 | 4.76 | > 100 | > 31.6 | 27.1 | 5.25 | 12 | > 100 | > 43.7 | > 30 | > 31.5 | 3.24 | 6.2 | > 100 | > 37.4 | > 100 | > 100 | 4.84
15 | CC(=O)c1ccc(Nc2nc3ccccc3c3occc23)cc1 | 21.7 | 12.3 | 16.1 | 27.6 | 33.8 | 2.4 | 36.2 | 54.1 | 61.7 | 11.9 | 98 | 9.12 | 71.2 | 41.1 | 48.6 | 28.2 | 31.6 | 41.3 | 96.4
16 | c1cc2cc(Cc3ccc4[nH]ccc4c3)ccc2[nH]1 | 33.6 | 37.3 | 33.5 | 33.9 | 28 | 54.4 | 32.2 | 66.6 | 72.3 | 41 | 34.2 | 34.5 | 32.9 | 78.9 | 44.3 | 30 | 57.7 | 38.9 | 34.6
17 | CC(=O)O[C@H]1C(=O)[C@@]2(C)[C@H]([C@H](OC(=O)c3ccccc3)[C@]3(O)C[C@H](OC(=O)[C@H](O)[C@@H](NC(=O)OC(C)(C)C)c4ccco4)C(C)=C1C3(C)C)[C@]1(OC(C)=O)CO[C@@H]1C[C@@H]2O | > 50 | 22.7 | > 50 | < 0.005 | 12.3 | 0.0241 | 0.601 | < 0.005 | 22.3 | 25.9 | – | 0.00875 | 0.0471 | < 0.005 | 10.9 | 19 | > 47.2 | > 33.4 | > 34.9
18 | Clc1ccc2c(c1)CC1C[N+]3=C(CCCCC3)C1=C2 (configuration not stated) | > 100 | > 100 | > 100 | > 100 | > 100 | > 100 | > 100 | > 100 | > 100 | > 100 | > 100 | > 100 | > 100 | > 100 | 97 | > 100 | 94.1 | > 100 | > 100
19 | CSc1c(S(C)=O)c2ccccc2n1C (configuration not stated) | > 100 | > 100 | > 100 | > 100 | > 100 | > 100 | > 100 | > 100 | > 100 | > 100 | > 100 | > 100 | > 100 | > 100 | > 100 | > 100 | > 100 | > 100 | > 100
20 | O=C(/C=C/c1ccc(O)c(O)c1)c1ccc(O)cc1O | 25.5 | 34.7 | 28.9 | 31 | 44.3 | 22.3 | 42.4 | 78.8 | 24 | 55.9 | 37.6 | 8.65 | 37.4 | 50.3 | 33.4 | 26.3 | 29.9 | 48.3 | 30.3
21 | S=C1C(CCCOCc2ccccc2)C2CCCC23CC2(CCN13)OCCS2 (configuration not stated) | > 10 | > 10 | > 10 | > 10 | > 10 | > 10 | > 10 | > 10 | > 10 | > 10 | > 10 | > 10 | > 10 | > 10 | > 10 | > 10 | > 10 | – | > 10
22 | CC(C)NC(=O)OCc1c(COC(=O)NC(C)C)c(-c2cc[n+](COC(=O)Cc3ccccc3)cc2)n2c1CCC2 | > 100 | > 100 | > 100 | > 100 | > 100 | > 100 | > 100 | > 100 | > 100 | > 100 | > 100 | > 100 | > 100 | > 100 | > 100 | > 100 | > 100 | > 100 | > 100
23 | CC(=O)c1sc2c(c1OC(=O)c1ccccc1)c(=O)n(-c1ccccc1)c(=S)n2-c1ccccc1 | 17.9 | 7.87 | > 26.4 | 30.1 | 62.9 | > 68.1 | 45.9 | > 30.7 | 5.26 | 8.3 | 8.33 | 67.8 | > 62.5 | 16.7 | 7.88 | 18.4 | > 23.9 | 32.8 | 12.6
24 | COc1cc2c(cc1OC)-c1cc3cc(OC)c(OC)cc3c(C)[n+]1CC2 (tested in a mixture with another compound) | > 100 | > 100 | > 100 | > 100 | > 100 | > 100 | > 100 | > 100 | > 100 | 48.1 | > 100 | > 100 | > 100 | > 100 | > 100 | > 100 | 46.3 | 95.5 | > 100
